Test results from ChEMBL document CHEMBL1129076 (J Med Chem, 1996).

Columns and labels:
[1] = target: T1, Vanilloid receptor (Rattus norvegicus, UniProt Q9ERZ8+Q9WUD2+O35433); experiment: Calcium +2 uptake into Dorsal Root Ganglion(DRG) neurons; type: functional, tissue-based
[2] = target: T1, Vanilloid receptor; experiment: Ability to stimulate uptake of Calcium into Dorsal Root Ganglion(DRG) neurons; type: functional, tissue-based
[3] = target: Transient receptor potential cation channel subfamily V member 1 (Rattus norvegicus, UniProt O35433); experiment: Binding affinity against Vanilloid receptor in dorsal Root Ganglion (DRG) membranes using [3H]RTX binding assay.; type: tissue-based
[4] = target: Transient receptor potential cation channel subfamily V member 1 (Rattus norvegicus) (UniProt O35433); experiment: Binding affinity against Vanilloid receptor in dorsal root ganglion (DRG) membranes relative to resinferatoxin (RTX); not tested; type: tissue-based
[5] = target: Transient receptor potential cation channel subfamily V member 1 (Rattus norvegicus) (UniProt O35433); experiment: Relative potency(RTX) against Dorsal Root Ganglion (DRG) membranes using RTX binding assay.; type: functional, tissue-based
[6] = target: Transient receptor potential cation channel subfamily V member 1 (Rattus norvegicus) (UniProt O35433); experiment: Relative potency against RTX binding to Dorsal Root Ganglion (DRG) membranes; type: functional, tissue-based

Sequence of Transient receptor potential cation channel subfamily V member 1 (Rattus norvegicus) (O35433 whole entry): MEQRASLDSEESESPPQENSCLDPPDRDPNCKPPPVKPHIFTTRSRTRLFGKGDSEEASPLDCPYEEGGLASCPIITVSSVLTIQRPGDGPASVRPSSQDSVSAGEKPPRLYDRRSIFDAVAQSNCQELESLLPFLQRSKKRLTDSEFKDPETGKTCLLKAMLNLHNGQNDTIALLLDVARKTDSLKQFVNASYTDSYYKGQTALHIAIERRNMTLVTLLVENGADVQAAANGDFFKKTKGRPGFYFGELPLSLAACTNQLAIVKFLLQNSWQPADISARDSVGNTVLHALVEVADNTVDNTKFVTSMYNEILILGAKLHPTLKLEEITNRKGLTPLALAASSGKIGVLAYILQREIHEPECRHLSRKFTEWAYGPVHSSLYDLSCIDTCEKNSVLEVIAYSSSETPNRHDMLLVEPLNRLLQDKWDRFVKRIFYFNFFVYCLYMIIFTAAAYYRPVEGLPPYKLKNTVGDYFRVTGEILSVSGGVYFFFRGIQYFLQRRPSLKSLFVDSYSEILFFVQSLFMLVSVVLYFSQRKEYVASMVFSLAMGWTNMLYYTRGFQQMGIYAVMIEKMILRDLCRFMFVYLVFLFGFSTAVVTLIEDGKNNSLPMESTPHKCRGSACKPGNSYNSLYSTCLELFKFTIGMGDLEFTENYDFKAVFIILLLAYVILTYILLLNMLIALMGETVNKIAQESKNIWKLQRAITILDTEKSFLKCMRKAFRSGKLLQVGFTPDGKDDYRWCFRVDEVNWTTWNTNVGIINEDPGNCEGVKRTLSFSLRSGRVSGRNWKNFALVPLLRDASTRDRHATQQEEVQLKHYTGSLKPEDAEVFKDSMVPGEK
Sequence of Transient receptor potential cation channel subfamily V member 1 (O35433 whole entry): as above

Structure (SMILES)	EC50 [1] [nM]	EC50 [2] [nM]	Ki [3] [nM]	Relative affinity [4]	Relative Potency [5]	Relative Potency [6]
C=C(C)[C@@]12C[C@@H](C)C34OC(Cc5ccccc5)(OC1[C@@H]3C=C(COC(C)=O)C[C@]1(O)C(=O)C(C)=C[C@@H]41)O2 (stereo partly drawn)	> 2000	–	–	–	–	–
C=C(C)[C@@]12C[C@@H](C)C34OC(Cc5ccccc5)(OC1[C@@H]3C=C(COC(=O)Cc1cccc(OC)c1)C[C@]1(O)C(=O)C(C)=C[C@@H]41)O2 (stereo partly drawn)	7.89	–	–	–	–	–
CCCCCCCCC(=O)NCc1ccc(OCCN)c(OC)c1	410	–	–	–	–	–
CCCCCCCCC(=O)NCc1cccc(OC)c1	> 100000	–	–	–	–	–
CCCCCCCCC(=O)NCc1ccc(OC)c(OC)c1	> 6410	–	–	–	–	–
C=C(C)[C@@]12C[C@@H](C)C34OC(Cc5ccccc5)(OC1[C@@H]3C=C(CNC(=O)Cc1ccc(O)c(OC)c1)C[C@]1(O)C(=O)C(C)=C[C@@H]41)O2 (stereo partly drawn)	–	122	10.6	0.011	0.013	–
COc1cc(CC(=O)OC/C=C/[C@H]2[C@H]3OC4(Cc5ccccc5)O[C@H]3CC[C@H]2O4)ccc1O	9150	–	–	–	–	–
C=C(C)[C@@]12C[C@@H](C)C34OC(C)(OC1[C@@H]3C=C(COC(=O)Cc1ccc(O)c(OC)c1)C[C@]1(O)C(=O)C(C)=C[C@@H]41)O2 (stereo partly drawn)	–	13.2	3.2	0.038	0.122	–
COc1cc(CC(=O)OCC2=C[C@H]3[C@@H]4C(C)(C)[C@]4(OC(C)=O)C(OC(C)=O)[C@@H](C)C3(O)[C@@H]3C=C(C)C(=O)[C@@]3(OC)C2)ccc1O (stereo partly drawn)	8510	–	–	–	–	–
C=C(C)[C@@]12C[C@@H](C)C34OC(Cc5ccccc5)(OC1[C@@H]3C=C(COC(=O)Cc1ccc(OC)c(N=[N+]=[N-])c1)C[C@]1(O)C(=O)C(C)=C[C@@H]41)O2 (stereo partly drawn)	10.64	–	–	–	–	–
C=C(C)[C@@]12C[C@@H](C)C34OC(c5ccccc5)(OC1[C@@H]3C=C(COC(=O)Cc1ccc(O)c(OC)c1)C[C@]1(O)C(=O)C(C)=C[C@@H]41)O2 (stereo partly drawn)	–	7.6	0.17	0.706	0.21	–
C=C(C)C12C[C@@H](C)C34OC(Cc5ccccc5)(OC1[C@@H]3C=C(COC(=O)Cc1ccc(OCCN)c(OC)c1)C[C@]1(O)C(=O)C(C)=CC41)O2 (single isomer, unassigned)	–	13.04	4.3	0.028	0.123	–
C=C(C)C12C[C@@H](C)C34OC(Cc5ccccc5)(OC1[C@@H]3C=C(COC(=O)Cc1ccccc1)C[C@]1(O)C(=O)C(C)=CC41)O2 (single isomer, unassigned)	10.22	10.22	8.3	0.015	–	0.157
C=C(C)C12C[C@@H](C)C34OC(Cc5ccccc5)(OC1[C@@H]3C=C(COC(=O)Cc1ccc(OC)c(OC)c1)C[C@]1(O)C(=O)C(C)=CC41)O2 (single isomer, unassigned)	–	14.89	1	0.12	0.107	–
C=C(C)C12C[C@@H](C)C34OC(Cc5ccccc5)(OC1[C@@H]3C=C(COC(=O)Cc1ccc(O)c(OC)c1)C[C@]1(OC)C(=O)C(C)=C[C@@H]41)O2 (single isomer, unassigned)	5.3	–	–	–	–	–
C=C(C)C12C[C@@H](C)C34OC(Cc5ccccc5)(OC1[C@@H]3C=C(CO)C[C@]1(O)C(=O)C(C)=CC41)O2 (single isomer, unassigned)	–	> 20000	> 10000	< 1e-05	< 8e-05	–
CCCCCCCCC(=O)NCc1ccc(O)c(OC)c1 [NONIVAMIDE]	> 550	–	–	–	–	–
C=C(C)[C@]12C[C@@H](C)[C@@]34O[C@](Cc5ccccc5)(O[C@@H]1[C@@H]3C=C(COC(=O)Cc1ccc(O)c(OC)c1)C[C@]1(O)C(=O)C(C)=C[C@@H]41)O2 [RESINIFERATOXIN]	–	1.6	0.12	1	1	–
